# Values of other authors, collected in patent US7026311B2, “Dibenzodiazepine derivatives, their preparation and use” (Abbott GmbH & Co., KG, priority 2002, dated 2006).
# Details: S. Cuzzocrea et al., Br. J. Pharmacol. 1997
compound,measurement,value
"NC(=O)c1cccc(N)c1 [Example 3-aminobenzamide, 3-aminobenzamide]",effects in a model of circulatory shock,protective effects
